# Measured values from patent publication US11613522B2, “Herbicidally active 3-phenylisoxazoline-5-carboxamides of tetrahydro- and dihydrofurancarboxamides” (BAYER AKTIENGESELLSCHAFT, priority 2017, dated 2023).
# Columns and labels:
# Format in all cases: in vivo
# [1] = system: Avena fatua; experiment: Pre-emergence herbicidal activity against AVEFA; settings: dosage 80 g/ha, scored visually after about 3 weeks vs untreated controls
# In short: (§1)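 Seeds sown in pots and covered with soil; compounds formulated as WP or EC applied to the soil surface as aqueous suspension or emulsion with 0.5% additive at 600 l/ha water. Pots held in greenhouse; activity scored visually about 3 weeks later as % versus untreated controls (100% = dead).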
# [2] = system: Setaria viridis; experiment: Pre-emergence herbicidal activity against SETVI; settings: dosage 80 g/ha, scored visually after about 3 weeks vs untreated controls
# In short: as §1
# [3] = system: Echinochloa crus-galli; experiment: Post-emergence herbicidal activity against ECHCG; settings: dosage 320 g/ha, rated visually after about 3 weeks
# In short: (§2)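 Post-emergence foliar spray of wettable-powder or emulsion-concentrate formulations (0.5% additive, 600 l/ha water) onto one-leaf-stage greenhouse plants. Percent activity scored by eye after ~3 weeks against untreated plants; 0% equals control growth, 100% equals plant death.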
# [4] = system: Stellaria media; experiment: Post-emergence herbicidal activity against STEME; settings: dosage 320 g/ha, rated visually after about 3 weeks
# In short: as §2
# [5] = system: Hordeum murinum; experiment: Pre-emergence herbicidal activity against HORMU; settings: dosage 80 g/ha
# In short: as §1
# [6] = system: Abutilon theophrasti; experiment: Post-emergence herbicidal activity against ABUTH; settings: dosage 320 g/ha, rated visually after about 3 weeks
# In short: as §2
# [7] = system: Amaranthus retroflexus; experiment: Post-emergence herbicidal activity against AMARE; settings: dosage 320 g/ha, rated visually after about 3 weeks
# In short: as §2
# [8] = system: Veronica persica; experiment: Post-emergence herbicidal activity against VERPE; settings: dosage 320 g/ha, rated visually after about 3 weeks
# In short: as §2
# [9] = system: Amaranthus retroflexus; experiment: Pre-emergence herbicidal activity against AMARE; settings: dosage 80 g/ha, scored visually after about 3 weeks vs untreated controls
# In short: as §1
# [10] = system: Polygonum convolvulus; experiment: Pre-emergence herbicidal activity against POLCO; settings: dosage 80 g/ha, scored visually after about 3 weeks vs untreated controls
# In short: as §1
# [11] = Pre-emergence herbicidal action against harmful plants (summary of the tables); settings: 504 h, application rate of 0.08 kg of active substance or less per hectare, read-out: herbicidal action, pre-emergence treatment (very good activity)
# Description: (§3) 1. Pre-emergence herbicidal action against harmful plants and crop plant compatibility Seeds of monocotyledonous and dicotyledonous weed plants and crop plants are placed in plastic or wood fiber pots and covered with soil. The compounds of the invention, formulated in the form of wettable powders (WP) or as emulsion concentrates (EC), are then applied onto the surface of the covering soil as aqueous suspension or emulsion with addition of 0.5% additive at a water application rate of 600 l/ha (converted). After the treatment, the pots are placed in a greenhouse and kept under good growth conditions for the trial plants. After about 3 weeks, the effect of the preparations is scored visually in comparison with untreated controls as percentages. For example, 100% activity=the plants have died, 0% activity=like control plants.
# As shown by the results, compounds according to the invention such as, for example, the compounds No. I-02 and other compounds from the tables (I-05, I-10, I-11, I-12, I-13, I-14, I-15, I-16, I-17, I-18, I-19, I-20, I-21, I-22, I-23, I-24, I-25, I-26, I-27, I-28, I-29) have, when used for pre-emergence treatment, very good activity (80% to 100% herbicidal action) against harmful plants such as Abutilon theophrasti, Alopecurus myosuroides, Amaranthus retroflexus, Avena fatua, Cyperus esculentus, Echinochloa crus-galli, Hordeum murinum, Lolium rigidum, Pharbitis purpurea, Polygonum convolvulus, Setaria viridis, Stellaria media, Veronica persica and Viola tricolor at an application rate of 0.08 kg of active substance or less per hectare.
# [12] = system: Pharbitis purpurea; experiment: Post-emergence herbicidal activity against PHBPU; settings: dosage 320 g/ha, rated visually after about 3 weeks
# In short: as §2
# [13] = system: Veronica persica; experiment: Pre-emergence herbicidal activity against VERPE; settings: dosage 80 g/ha
# In short: as §1
# [14] = system: Lolium rigidum; experiment: Pre-emergence herbicidal activity against LOLRI; settings: dosage 80 g/ha, scored visually after about 3 weeks vs untreated controls
# In short: as §1
# [15] = system: Viola tricolor; experiment: Pre-emergence herbicidal activity against VIOTR; settings: dosage 80 g/ha, scored visually after about 3 weeks vs untreated controls
# In short: as §1
# [16] = system: Alopecurus myosuroides; experiment: Pre-emergence herbicidal activity against ALOMY; settings: dosage 80 g/ha, scored visually after about 3 weeks vs untreated controls
# In short: as §1
# [17] = system: Echinochloa crus-galli; experiment: Pre-emergence herbicidal activity against ECHCG; settings: dosage 80 g/ha, scored visually after about 3 weeks vs untreated controls
# In short: as §1
# [18] = system: Stellaria media; experiment: Pre-emergence herbicidal activity against STEME; settings: dosage 80 g/ha, scored visually after about 3 weeks vs untreated controls
# In short: as §1
# [19] = system: Polygonum convolvulus; experiment: Post-emergence herbicidal activity against POLCO; settings: dosage 320 g/ha, rated visually after about 3 weeks
# In short: as §2
# [20] = system: Alopecurus myosuroides; experiment: Post-emergence herbicidal activity against ALOMY; settings: dosage 320 g/ha, rated visually after about 3 weeks
# In short: as §2
# [21] = system: Avena fatua; experiment: Post-emergence herbicidal activity against AVEFA; settings: dosage 320 g/ha, rated visually after about 3 weeks
# In short: as §2
# [22] = system: Pharbitis purpurea; experiment: Pre-emergence herbicidal activity against PHBPU; settings: dosage 80 g/ha, scored visually after about 3 weeks vs untreated controls
# Description: as §3, with “control plants. [table]” for “control plants.”
# [23] = system: Viola tricolor; experiment: Post-emergence herbicidal activity against VIOTR; settings: dosage 320 g/ha, rated visually after about 3 weeks
# In short: as §2
# [24] = system: Lolium rigidum; experiment: Post-emergence herbicidal activity against LOLRI; settings: dosage 320 g/ha, rated visually after about 3 weeks
# In short: as §2
# [25] = system: Hordeum murinum; experiment: Post-emergence herbicidal activity against HORMU; settings: dosage 320 g/ha, rated visually after about 3 weeks
# In short: as §2
# [26] = system: Setaria viridis; experiment: Post-emergence herbicidal activity against SETVI; settings: dosage 320 g/ha, rated visually after about 3 weeks
# In short: as §2
compound,measurement,setting,value
"C=C[C@]1(C(=O)N[C@@H]2CO[C@H](C(=O)NOCC)C2)CC(c2cc(F)cc(F)c2)=NO1 (mixture of isomers) [Example I-12, (5S)-3-(3,5-difluorophenyl)-N-[cis-5-(ethoxycarbamoyl)tetrahydrofuran-3-yl]-5-vinyl-4H-isoxazole-5-carboxamide]",pest or weed control at 80 g/ha,"[1]; Avena fatua, 504 h, read-out: Pre-emergence herbicidal activity in % against AVEVA (AVEFA)",100%
same,pest or weed control at 80 g/ha,"[2]; Setaria viridis, 504 h",100%
same,pest or weed control at 320 g/ha,"[3]; Echinochloa crus-galli, 504 h",90%
same,pest or weed control at 320 g/ha,"[4]; Stellaria media, 504 h",90%
same,pest or weed control at 80 g/ha,"[5]; Hordeum murinum, 504 h",100%
same,pest or weed control at 320 g/ha,"[6]; Abutilon theophrasti, 504 h",80%
same,pest or weed control at 320 g/ha,"[7]; Amaranthus retroflexus, 504 h",80%
same,pest or weed control at 320 g/ha,"[8]; Veronica persica, 504 h",80%
same,pest or weed control at 80 g/ha,"[9]; Amaranthus retroflexus, 504 h",100%
same,pest or weed control at 80 g/ha,"[10]; Fallopia convolvulus, 504 h",100%
same,pest or weed control at 80 g/ha,[11],80 to 100%
same,pest or weed control at 320 g/ha,"[12]; Ipomoea purpurea, 504 h",80%
same,pest or weed control at 80 g/ha,"[13]; Veronica persica, 504 h",100%
same,pest or weed control at 80 g/ha,"[14]; Lolium rigidum, 504 h",100%
same,pest or weed control at 80 g/ha,"[15]; Viola tricolor, 504 h",100%
same,pest or weed control at 80 g/ha,"[16]; Alopecurus myosuroides, 504 h",100%
same,pest or weed control at 80 g/ha,"[17]; Echinochloa crus-galli, 504 h",100%
same,pest or weed control at 80 g/ha,"[18]; Stellaria media, 504 h",100%
same,pest or weed control at 320 g/ha,"[19]; Fallopia convolvulus, 504 h",80%
same,pest or weed control at 320 g/ha,"[20]; Alopecurus myosuroides, 504 h",90%
same,pest or weed control at 320 g/ha,"[21]; Avena fatua, 504 h",100%
same,Pre-emergence herbicidal activity in % against PHBPU,[22],90%
same,pest or weed control at 320 g/ha,"[23]; Viola tricolor, 504 h",80%
same,pest or weed control at 320 g/ha,"[24]; Lolium rigidum, 504 h",90%
same,pest or weed control at 320 g/ha,"[25]; Hordeum murinum, 504 h",90%
CONC(=O)[C@@H]1C[C@H](NC(=O)[C@@]2(C)CC(c3cc(F)cc(F)c3)=NO2)CO1 [Example I-24],Pre-emergence herbicidal activity in % against AVEVA (AVEFA),[1],100%
same,Pre-emergence herbicidal activity in % against SETVI,[2],100%
same,Post-emergence herbicidal activity in % against ECHCG,[3],100%
same,Post-emergence herbicidal activity in % against SETVI,[26],80%
same,Post-emergence herbicidal activity in % against STEME,[4],100%
same,Pre-emergence herbicidal activity in % against HORMU,[5],100%
same,Post-emergence herbicidal activity in % against ABUTH,[6],80%
same,Post-emergence herbicidal activity in % against AMARE,[7],80%
same,Post-emergence herbicidal activity in % against VERPE,[8],80%
same,Pre-emergence herbicidal activity in % against AMARE,[9],100%
same,Pre-emergence herbicidal activity in % against POLCO,[10],90%
same,Post-emergence herbicidal activity in % against PHBPU,[12],90%
same,Pre-emergence herbicidal activity in % against VERPE,[13],90%
same,Pre-emergence herbicidal activity in % against LOLRI,[14],100%
same,Pre-emergence herbicidal activity in % against VIOTR,[15],90%
same,Pre-emergence herbicidal activity in % against ALOMY,[16],100%
same,Pre-emergence herbicidal activity in % against ECHCG,[17],90%
same,Pre-emergence herbicidal activity in % against STEME,[18],90%
same,Post-emergence herbicidal activity in % against POLCO,[19],80%
same,Post-emergence herbicidal activity in % against ALOMY,[20],100%
same,Post-emergence herbicidal activity in % against AVEFA,[21],100%
same,Pre-emergence herbicidal activity in % against PHBPU,[22],90%
same,Post-emergence herbicidal activity in % against VIOTR,[23],90%
same,Post-emergence herbicidal activity in % against LOLRI,[24],100%
same,Post-emergence herbicidal activity in % against HORMU,[25],100%
